{"source": "patent US9833002B2", "about": "“Biocide compositions” (Ecolab USA Inc., priority 2013, dated 2017)", "key": {"planktonic organisms": {"system": "planktonic organisms", "assay": "Dynamic flow loop test, planktonic kill after 4 hour contact time", "format": "cell-based", "details": "112.5 ppm active THPS", "experimental": "(§1) Evaluation of the biocide compositions disclosed herein was performed through a dynamic flow loop test where both planktonic and sessile organisms could be monitored. To start this testing, fluid from the field, as well as cultured organisms from the field, were placed into the system and allowed to grow for approximately 7 weeks, providing a mature biofilm that can then be challenged by the biocide treatment.\n(§2) The test system holds approximately 1.5 liters of fluid that are continually circulated over 1018 carbon steel biostuds located in the 6 o'clock position of a modified Robbin's device. The device holds a maximum of eight biostuds in the 6 o'clock position. The production fluid was pumped through the system at a rate of approximately 3.1 gallons per minute, which allows for deposition of microorganisms and solids onto the biostuds. The health of the microbial population was monitored weekly during the biofilm growth period using ATP quantification.\n(§3) After concluding the establishment of a mature biofilm, the sessile kill study was initiated. […] A baseline reading was taken, during all of the studies, prior to the addition of the chemical to the individual flow loop. […]\nPlanktonic kill in the dynamic flow loops was also evaluated immediately after a 4 hour contact time with the biocide."}, "[1]": {"system": "biofilm (sessile organisms) on 1018 carbon steel biostuds", "assay": "Dynamic flow loop test, sessile kill study and biofilm regrowth", "format": "cell-based", "details": "within 24 hours", "experimental": "as §1, §2, §3\nThe initial data point before treatment is set to 100% and all other readings are reported as a percent change compared to the baseline. […]"}}}
{"substance": "tetrakis(hydroxymethyl)phosphonium sulphate [THPS]", "values": [{"measurement": "Planktonic kill, % reduction", "setting": "planktonic organisms", "value": 81.8, "unit": "%"}, {"measurement": "Biofilm size after treatment compared to before treatment", "setting": "[1]", "value": "larger than it was before treatment"}]}
